Legend:
[1] = test system: nigrostriatal-lesioned rats; assay: Nigrostriatal-lesion-induced rotational behavior following amphetamine administration; assay type: in vivo; settings: relative to Vehicle+Amphetamine, drug 2 amphetamine SC
Experimental: Table 4, below, indicates the changes in rotational behavior in nigrostriatal-lesioned rats treated with various alpha-2B receptor agonists and the psychostimulant amphetamine. Drug 1 was administered 15 minutes before amphetamine, and 10 minutes post-amphetamine, the animals were placed into the rotometer for 30 or 60 minutes. “% decrease rotations” indicates the percentage decrease in total rotations relative to the Vehicle+Amphetamine group. ^⋄ indicates significant difference (P<0.05) relative to Vehicle+Amphetamine treated animals. * indicates significant difference (P<0.05) relative to Vehicle+Vehicle treated animals.
Amphetamine-induced rotational behavior. Pre-Apomorphine-screened (rotated) rats (with lesions ≧95% DA cell loss) were purchased from Charles Rivers Laboratories. Animals were given ˜4 days to acclimate prior to testing. All animals weighted 250-300 g at the beginning of the study. Animals were treated with various combinations of vehicle or alpha-2B receptor agonist and amphetamine.
Vehicle or alpha-2B receptor agonist was administered (p.o.) 15 minutes before amphetamine (2 mg/kg s.c.). Rotational behavior was assessed 15 minutes post-amphetamine administration and was monitored for 60 minutes using a Rotometer system from San Diego Instruments (San Diego, Calif.).
(§1) For i.p. administration, the compounds are formulated in H2O with 0.5% DMSO and given in a volume of 1 ml/kg body weight by injecting into the intraperitoneal cavity. For p.o. administration, the compounds are formulated in H2O with 0.5% DMSO and given in a volume of 2 ml/kg body weight using a 25-gauge, 1.5 inch gavage needle that is slowly inserted through the esophagus into the stomach.

[2] = test system: mice; assay: Amphetamine-induced hyperlocomotion (open field); assay type: in vivo; settings: drug 2 amphetamine SC
Experimental: Table 2, below, indicates the locomotor responses of mice treated with various combinations of alpha-2B receptor agonists and the psychostimulant amphetamine. Drug 1 was administered 30 minutes after the animal was placed in the open field. Drug 2 was administered subcutaneously (SC) at 45 minutes after the animal was placed in the open field (15 minutes after drug 1). AUC indicates the total amount of locomotor activity after administration of drug 2. “% decrease activity” indicates the percentage decrease in total activity relative to the Vehicle+Amphetamine group. ° indicates significant difference (P<0.05) relative to Vehicle+Amphetamine treated animals. * indicates significant difference (P<0.05) relative to Vehicle+Vehicle treated animals.
(§2) Amphetamine- or cocaine-induced hyperactivity. Mice were placed in an open field apparatus (FlexField, San Diego Instruments, San Diego, Calif.). After 30 minutes of habituation, they received a vehicle or haloperidol injection or injection of alpha-2B receptor agonist followed by an injection of amphetamine (2 mg/kg, s.c.) or cocaine (10 mg/kg, i.p.) at minute 45. Their activity levels were subsequently measured for another 1 hour post-injection. Total activity over each 5 minute bin (21 total bins) was added to establish activity curve over the 105 minute testing.
as §1

[3] = biological target: T1, alpha-2A receptor (Homo sapiens, UniProt P08913); assay: Alpha-2A receptor activity (efficacy relative to brimonidine); assay type: cell-based; settings: in words; b7: lacks significant activity = less than 40% of the efficacy of brimonidine at alpha-2A
T1 sequence (P08913 1-465): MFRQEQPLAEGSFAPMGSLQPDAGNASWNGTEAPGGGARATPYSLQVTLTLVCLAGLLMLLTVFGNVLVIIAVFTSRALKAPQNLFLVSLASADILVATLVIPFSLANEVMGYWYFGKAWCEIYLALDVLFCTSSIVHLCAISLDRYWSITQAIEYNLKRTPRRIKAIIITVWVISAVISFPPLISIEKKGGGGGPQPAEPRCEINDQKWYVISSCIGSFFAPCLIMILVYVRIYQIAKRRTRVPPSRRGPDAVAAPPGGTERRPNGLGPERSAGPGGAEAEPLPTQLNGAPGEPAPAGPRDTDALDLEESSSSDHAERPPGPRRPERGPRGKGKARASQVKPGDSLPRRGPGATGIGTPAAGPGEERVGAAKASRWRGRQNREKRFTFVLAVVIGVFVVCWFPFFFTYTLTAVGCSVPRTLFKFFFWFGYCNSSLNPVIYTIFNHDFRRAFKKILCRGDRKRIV
Description: The methods of the present invention use alpha-2 agonists lacking significant activity at the alpha-2A receptor subtype. An agonist lacks significant alpha-2A receptor activity if the agonist has less than 40% of the efficacy of brimonidine at the alpha-2A receptor subtype. Compounds of the invention include, therefore, alpha-2B receptor agonists lacking significant alpha-2A activity; alpha 2B/2C receptor agonists lacking significant alpha-2A activity; and alpha-2C receptor agonists lacking significant alpha-2A activity.
Efficacy, also known as intrinsic activity, is a measure of maximal receptor activation achieved by a compound and can be determined using any accepted assay of alpha-adrenergic receptor activation, such as a cAMP or Receptor Selection and Amplification Technology (RSAT). Efficacy is represented as a ratio or percentage of the maximal effect of the drug to the maximal effect of a standard agonist for each receptor subtype. Brimonidine, itself an alpha-2B receptor agonist (it is has 100% the efficacy of brimonidine at the alpha-2B adrenergic receptor), is used as the standard agonist for the alpha-2B adrenergic receptors.
Agonist activity can be characterized using any of a variety of routine assays, including, for example, Receptor Selection and Amplification Technology (RSAT) assays (Messier et al., Pharmacol. Toxicol. 76:308-11 (1995); cyclic AMP assays (Shimizu et al., J. Neurochem. 16:1609-1619 (1969)); and cytosensor microphysiometry assays (Neve et al., J. Biol. Chem. 267:25748-25753 (1992)). Such assays generally are performed using cells that naturally express only a single alpha-adrenergic receptor subtype, or using transfected cells expressing a single recombinant alpha-adrenergic receptor subtype. The adrenergic receptor can be a human receptor or homolog of a human receptor having a similar pharmacology.
The RSAT assay measures receptor-mediated loss of contact inhibition resulting in selective proliferation of receptor-containing cells in a mixed population of confluent cells. The increase in cell number is assessed with an appropriate detectable marker gene such as beta-galactosidase, if desired, in a high throughput or ultra high throughput assay format. Receptors that activate the G protein, Gq, elicit the proliferative response. Alpha-adrenergic receptors, which normally couple to Gi, activate the RSAT response when coexpressed with a hybrid Gq protein containing a Gi receptor recognition domain, designated Gq/i5. Conklin et al., Nature 363:274-6 (1993)).
As an example, an RSAT assay can be performed essentially as follows. NIH-3T3 cells are plated at a density of 2×10^6 cells in 15 cm dishes and maintained in Dulbecco's modified Eagle's medium supplemented with 10% calf serum. One day later, cells are cotransfected by calcium phosphate precipitation with mammalian expression plasmids encoding p-SV-β-galactosidase (5-10 μg), receptor (1-2 μg) and G protein (1-2 μg). Carrier DNA, for example 40 μg salmon sperm DNA, also can be included to increase transfection efficiency. Fresh media is added on the following day; one to two days later, cells are harvested and frozen in 50 assay aliquots. Transfected cells are thawed, and 100 μl of cells added to 100 μl aliquots of compound to be tested, with various concentrations assayed in triplicate, for example, in 96-well plates. Incubation continues for 72 to 96 hours at 37° C. After washing with phosphate-buffered saline, β-galactosidase activity is determined by adding 200 μl of chromogenic substrate (3.5 mM O-nitrophenyl-β-D-galactopyranoside/0.5% NP-40 in phosphate buffered saline), incubating overnight at 30° C., and measuring optical density at 420 nm. The absorbancy is a measure of enzyme activity, which depends on cell number and reflects receptor-mediated cell proliferation. The EC50 and maximal effect (i.e., efficacy) of each drug at each receptor is determined.

[4] = test system: mice; assay: Cocaine-induced hyperlocomotion (open field); assay type: in vivo; settings: drug 2 cocaine SC; for % DECREASE ACTIVITY: relative to Vehicle+Cocaine
Experimental: Table 3, below, indicates the locomotor responses of mice treated with various combinations of alpha-2B receptor agonists and the psychostimulant cocaine. Drug 1 was administered 30 minutes after the animal was placed in the open field. Drug 2 was administered subcutaneously (SC) at 45 minutes after the animal was placed in the open field (15 minutes after drug 1). AUC indicates the total amount of locomotor activity after administration of drug 2. “% decrease activity” indicates the percentage decrease in total activity relative to the Vehicle+Cocaine group. ° indicates significant difference (P<0.05) relative to Vehicle+Cocaine treated animals. * indicates significant difference (P<0.05) relative to Vehicle+Vehicle treated animals.
as §2, §1

| Compound | % DECREASE ACTIVITY REL TO VEH + AMPH ([2]; drug 1 0.01 mg/kg PO) | TOTAL ACTIVITY POST-AMPHETAMINE (AUC) ([2]; drug 1 0.01 mg/kg PO) | % DECREASE ACTIVITY REL TO VEH + AMPH ([2]; drug 1 0.03 mg/kg PO) | TOTAL ACTIVITY POST-AMPHETAMINE (AUC) ([2]; drug 1 0.03 mg/kg PO) | % DECREASE ACTIVITY REL TO VEH + AMPH ([2]; drug 1 0.1 mg/kg PO) | TOTAL ACTIVITY POST-AMPHETAMINE (AUC) ([2]; drug 1 0.1 mg/kg PO) | % DECREASE ACTIVITY REL TO VEH + AMPH ([2]; drug 1 1 mg/kg PO) | TOTAL ACTIVITY POST-AMPHETAMINE (AUC) ([2]; drug 1 1 mg/kg PO) | alpha-2A receptor activity [3] | TOTAL ACTIVITY POST-COCAINE (AUC) ([4]; drug 1 0.03 mg/kg PO) | TOTAL ACTIVITY POST-COCAINE (AUC) ([4]; drug 1 0.1 mg/kg PO) | TOTAL ACTIVITY POST-COCAINE (AUC) ([4]; drug 1 0.3 mg/kg PO) | % DECREASE ACTIVITY ([4]; drug 1 0.03 mg/kg PO) | % DECREASE ACTIVITY ([4]; drug 1 0.1 mg/kg PO) | % DECREASE ACTIVITY ([4]; drug 1 0.3 mg/kg PO) | % DECREASE ROTATIONS ([1]; drug 1 0.03 mg/kg PO) | % DECREASE ACTIVITY REL TO VEH + AMPH ([2]; drug 1 0.03 mg/kg IP) | TOTAL ACTIVITY POST-AMPHETAMINE (AUC) ([2]; drug 1 0.03 mg/kg IP) | further results |
| --- | --- | --- | --- | --- | --- | --- | --- | --- | --- | --- | --- | --- | --- | --- | --- | --- | --- | --- | --- |
| S=c1[nH]cc(CC2CC=CC2)[nH]1 [Compound D] | 14% * | 10664.0 ± 786.2 | 51% ^⋄ | 5987.5 ± 1369. | 43% ^⋄ * | 6992.5 ± 693.1 | 62% ^⋄ | 4650.0 ± 628.9 | lack significant alpha-2A receptor activity |  |  |  |  |  |  |  |  |  | % DECREASE ROTATIONS ([1]; drug 1 0.1 mg/kg PO): 51% ^⋄ *; % DECREASE ROTATIONS ([1]; drug 1 1 mg/kg PO): 60% ^⋄ * |
| O=C1c2ccccc2CC[C@H]1Cc1c[nH]c(=S)[nH]1 [Compound E] | 15% * | 11419.2 ± 550.4 | 58% ^⋄ | 5616.8 ± 618.2 | 66% ^⋄ | 4623.8 ± 1166.7 | 49% ^⋄ * | 6867.3 ± 979.3 | lack significant alpha-2A receptor activity | 5033.5 ± 503.8 | 6263.0 ± 436.6 | 3662.1 ± 1458.2 | 52% ^⋄ * | 40% ^⋄ * | 65% ^⋄ |  |  |  | % DECREASE ROTATIONS ([1]; drug 1 0.3 mg/kg PO): 58% ^⋄ *; % DECREASE ACTIVITY REL TO VEH + AMPH ([2]; drug 1 10 mg/kg PO): 55% ^⋄; TOTAL ACTIVITY POST-AMPHETAMINE (AUC) ([2]; drug 1 10 mg/kg PO): 6026.0 ± 1007.9; TOTAL ACTIVITY POST-COCAINE (AUC) ([4]; drug 1 0.01 mg/kg PO): 5036.5 ± 464.2; % DECREASE ACTIVITY ([4]; drug 1 0.01 mg/kg PO): 52% ^⋄ * |
| OCCNC(=S)NCc1cccc(Cl)c1F [Compound A] |  |  |  |  |  |  |  |  | lack significant alpha-2A receptor activity | 8469 ± 935.01 | 6457.67 ± 754.0 | 3543 ± 648.02 | 19% * ^ | 38% ^⋄ * | 66% ^⋄ | 65% ^⋄ * | 55% ^⋄ | 5524.8 ± 624.2 |  |
| c1ccc2c(c1)CC[C@@H](Cc1c[nH]cn1)C2 [Compound B] |  |  |  |  |  |  |  |  | lack significant alpha-2A receptor activity |  |  |  |  |  |  | 29% * ^ | 68% ^⋄ | 3940.5 ± 573.7 | % DECREASE ACTIVITY REL TO VEH + AMPH ([2]; drug 1 1 mg/kg IP): 64% ^⋄; TOTAL ACTIVITY POST-AMPHETAMINE (AUC) ([2]; drug 1 1 mg/kg IP): 4462.0 ± 957.5 |

From patent US20110160265A1, “METHOD OF TREATING MOTOR DISORDERS WITH ALPHA-2B ADRENERGIC RECEPTOR AGONISTS” (priority 2007, published 2011)
